No end group written: not given here.
Legend:
S. aureus ATCC25923 [1] = assay: Minimum inhibitory concentration (MIC) determination; assay type: cell-based, Staphylococcus aureus; settings: S. aureus (ATCC 25923); 96-well plate, LB, fermentation supernatant diluted to 1-6 μg·mL^−1; lowest peptide concentration with no bacterial growth; n = 3
Experimental: (§1) A single colony of the tested bacteria was picked to LB liquid medium and incubated at 37 °C until the OD600 reached about 1. This test bacteria solution was diluted 1000 times. The fermentation supernatant was serially diluted in a 96-well plate using replacement buffer to 1, 2, 3, 4, 5, and 6 μg·mL^−1 concentrations. Then, 20 μL of the diluted peptide and 100 μL of the test bacterium were added to each well. The negative control and positive control were […], respectively. The MIC value was defined as the lowest peptide concentration associated with no bacterial growth. In this study, the MIC values of Turgencin A were determined against S. aureus ATCC25923, Salmonella spp. ATCC10467, E. coli ATCC10305, E. Coli O157 ATCC35150, L. monocytogenes ATCC21633, and B. subtilis ATCC6633.

E. coli ATCC10305 = assay: as above; assay type: cell-based, Escherichia coli; settings: E. coli (ATCC 10305); 96-well plate, LB, fermentation supernatant diluted to 1-6 μg·mL^−1; lowest peptide concentration with no bacterial growth; n = 3
Experimental: as §1

S. aureus ATCC25923 [2] = assay: pH stability, read out by agar well diffusion assay; assay type: physicochemical, Staphylococcus aureus; settings: 13.7 μg·mL^−1; 100 mM buffers pH 2, 4, 6, 8, 10; 37 °C, 4 h; inhibition circle against S. aureus ATCC25923 after 12 h; n = 3
Experimental: (§2) The test bacterial strain was seeded into an LB liquid medium and cultured at 37 °C until the OD600 value reached 1. In total, 50 μL of bacteria was mixed with the 15 mL molten LB medium (1% peptone, 1% NaCl, and 0.5% yeast extract) at 25 °C and allowed to solidify. Holes were punched with sterile gun heads. Subsequently, 50 μL of the fermentation supernatant was added to the holes. Gentamicin (Gen) at 50 µg·mL^−1 was used as the positive control. The antibacterial peptide SC3, which was not active in the laboratory, was used as the negative control.
(§3) The rTurgencin A freeze-dried fermentation supernatant was dissolved in different buffers. The contents were all 200 mg·mL^−1. Therefore, the concentrations of rTurgencin A in this experiment were all 13.7 μg·mL^−1.
The rTurgencin A freeze-dried fermentation supernatant was dissolved in a glycine solution at a pH of 2, a sodium acetate solution at a pH of 4, a Tris-HCl solution at a pH of 6, a Tris-HCl solution at a pH of 8, and a glycine solution at a pH of 10. The final concentrations of the buffer solution were all 100 mM. Then, the samples were treated at 37 °C for 4 h and subjected to the agar well diffusion assay. Twelve hours later, the inhibition circle was observed. The negative control was a buffer solution of different pHs.

S. aureus ATCC25923 [3] = assay: Total nucleotide leakage; assay type: cell-based, Staphylococcus aureus; settings: positive control 0.1% Triton X-100, 4 h
Experimental: The total nucleotide leakage associated with the peptide activity was analyzed according to the protocol described by Shwaiki et al.. We detected the total nucleotide leakage of the effect of Turgencin A on the cell membrane of S. aureus ATCC25923. The OD of each concentration was measured at 260 nm after four hours of contact reaction. The positive and negative controls were 0.1% Triton X-100 and water, respectively.

S. aureus ATCC25923 [4] = assay: Protease stability, read out by agar well diffusion assay; assay type: in vitro ADME, Staphylococcus aureus; settings: 2 h, 13.7 μg·mL^−1, inhibition circle against S. aureus ATCC25923, n = 3
Experimental: as §2, §3
The rTurgencin A freeze-dried fermentation supernatant was dissolved in buffers of a glycine solution at a pH of 2, a PBS solution at a pH of 6, a Tris-HCl solution at a pH of 7, and a Tris-HCl solution at a pH of 8. The final concentrations of the buffer solution were all 100 mM. Pepsin was added to the solution at a pH of 2, papain at a pH of 6, proteinase K at a pH of 7, and trypsin at a pH of 8. The protease concentrations were all 1 mg·mL^−1. The mixtures of 0.24 U of different protease solutions and rTurgencin A were reacted at 37 °C for 2 h. The samples were then subjected to an agar well diffusion assay. Twelve hours later, the inhibition circle was observed. The negative control was different protease solutions.

[5] = Pork preservation experiment, flesh color; settings: pork treated with rTurgencin A at 10 μg·mL^−1, stored at 4 °C; days 0, 2, 4, 6; control deteriorated on day 4
Experimental: (§4) The fermentation supernatant was passed through a 0.22 μm membrane filter and transferred to a beaker. Fresh pork hind leg meat was cut into 5 g pieces and placed in the above solution, soaked for 1 min in each direction, shaken so that the surface of the meat was fully exposed to the solution, removed, placed on cling film to drain, left for 5 min at room temperature, turned over, and left for another 5 min to remove excess water so that the meat neither dripped nor was too dry. The meat was then wrapped in plastic and stored in a refrigerator at 4 °C for seven days. During this period, the pork samples were tested for colony counts every 48 h, according to the method of GB 4789-2022 [42]. The colony count is expressed by colony-forming units (CFU), and a common logarithm determines the total number of colonies. SC3 served as the negative control.

B. subtilis ATCC6633 = assay: Minimum inhibitory concentration (MIC) determination; assay type: cell-based, Bacillus subtilis; settings: B. subtilis (ATCC 6633); 96-well plate, LB, fermentation supernatant diluted to 1-6 μg·mL^−1; lowest peptide concentration with no bacterial growth; n = 3
Experimental: as §1

[6] = test system: L. monocytogenes ATCC21633; assay: as above; assay type: cell-based, Listeria monocytogenes; settings: L. monocytogenes (ATCC 21633); 96-well plate, LB, fermentation supernatant diluted to 1-6 μg·mL^−1; lowest peptide concentration with no bacterial growth; n = 3
Experimental: as §1

[7] = test system: Salmonella spp. ATCC10467; assay: as above; assay type: cell-based; settings: Salmonella spp. (ATCC 10467); 96-well plate, LB, fermentation supernatant diluted to 1-6 μg·mL^−1; lowest peptide concentration with no bacterial growth; n = 3
Experimental: as §1

[8] = test system: Gram-positive and Gram-negative bacteria; assay: Agar well diffusion assay, inhibition profiling of six strains; assay type: cell-based; settings: fermentation supernatant, 9 μg·mL^−1 rTurgencin A; B. subtilis, S. aureus, L. monocytogenes, Salmonella spp., E. coli O157, E. coli
Experimental: as §2

[9] = test system: total food spoilage bacteria in pork; assay: Pork preservation experiment, total number of bacteria; settings: pork treated with rTurgencin A at 10 μg·mL^−1, stored at 4 °C; days 0, 1, 3, 5; control group increasing
Experimental: as §4, with “The meat was then wrapped in plastic and stored in a refrigerator at 4 °C for seven days. During this period, the pork samples were tested for colony counts every 48 h, according to the method of GB 4789-2022 [42].” left out

[10] = test system: L. monocytogenes ATCC21633; assay: Agar well diffusion assay; assay type: cell-based, Listeria monocytogenes; settings: 9 μg·mL^−1 rTurgencin A fermentation supernatant, 50 μL per well, against 50 μg·mL^−1 gentamicin
Experimental: as §2

[11] = Antibacterial activity of the nickel column purified product; assay type: cell-based; settings: nickel column purified product after dialysis of the replacement solution
Experimental: For the affinity purification with a nickel column, the Ni NTA Beads 6FF filler (Smart-Lifesciences, Changzhou, China) was added to the column, and the filler was rinsed twice with distilled water to remove ethanol, followed by two rinses with binding buffer (50 mM Tris-HCl pH = 7.9, 500 mM NaCl, and 10 mM Imidazole). The fermentation supernatant was treated with a 0.45 μm membrane filter, added to the nickel column, and combined with filler for 1 h in a low-speed shaker at 4 °C. The flow solution was collected and rinsed with binding buffer (50 mM Tris-HCl pH = 7.9, 500 mM NaCl, and 10 mM Imidazole) three times to wash off unbound proteins. Elution buffer (50 mM Tris-HCl pH = 7.9, 500 mM NaCl, and 1 M imidazole) was added and the eluent of the target protein was collected. Finally, the eluent was dialyzed in 0.01 M PBS for 12 h at a low temperature.

S. aureus ATCC25923 [12] = assay: Agar well diffusion assay; assay type: cell-based, Staphylococcus aureus; settings: 9 μg·mL^−1 rTurgencin A fermentation supernatant, 50 μL per well, against 50 μg·mL^−1 gentamicin
Experimental: as §2

S. aureus ATCC25923 [13] = assay: Temperature stability, read out by agar well diffusion assay; assay type: physicochemical, Staphylococcus aureus; settings: 13.7 μg·mL^−1 in 50 mM pH 7.4 Tris-HCl, inhibition circle against S. aureus ATCC25923 after 12 h, n = 3
Experimental: as §2, §3
The rTurgencin A freeze-dried fermentation supernatant was dissolved in a 50 mM pH 7.4 Tris-HCl solution and then treated at 4 °C, 25 °C, 37 °C, 65 °C, and 90 °C for 1 h. The samples were subjected to an agar well diffusion assay. Twelve hours later, the inhibition circle was observed. The negative control was a 50 mM pH 7.4 Tris-HCl solution after treatment for 1 h at the same temperature.

E. coli O157 ATCC35150 = assay: Minimum inhibitory concentration (MIC) determination; assay type: cell-based, Escherichia coli O157; settings: E. coli O157 (ATCC 35150); 96-well plate, LB, fermentation supernatant diluted to 1-6 μg·mL^−1; lowest peptide concentration with no bacterial growth; n = 3
Experimental: as §1

S. aureus ATCC25923 [14] = assay: Stability in salt solutions, read out by agar well diffusion assay; assay type: physicochemical, Staphylococcus aureus; settings: 5 mM MgCl2, 50 mM MgCl2, 50 mM KCl and 150 mM KCl; 13.7 μg·mL^−1; inhibition circle against S. aureus ATCC25923; n = 3
Experimental: as §2, §3
The rTurgencin A freeze-dried fermentation supernatant was dissolved in 5 mM MgCl2, 50 mM MgCl2, 50 mM KCl, and 150 mM KCl, respectively. Then, the samples were subjected to an agar well diffusion assay. Twelve hours later, the inhibition circle was observed. The negative control was the different salt solutions.

Question: With “GPKTKAACKMACKLATCGKKPGGWKCKLCELGCDAV (disulfide (positions not given here)) [rTurgencin A, His-tagged recombinant Turgencin A expressed in Pichia pastoris; tested as yeast fermentation supernatant, concentration by ELISA]” as the sequence, how does the MIC (S. aureus ATCC25923 [1]) read?
Answer: Its MIC is 3 µg/mL.

Question: What about the MIC (E. coli ATCC10305) of the same sequence?
Answer: Its MIC is 5 µg/mL.

Question: And the “reduction in inhibitory action at low pHs” value (S. aureus ATCC25923 [2])?
Answer: Its value is 40%.

Question: And the “stability at neutral and high pH levels” value (S. aureus ATCC25923 [2])?
Answer: The value was “good stability”.

Question: What about the “total nucleotide leakage relative to the positive control” value (S. aureus ATCC25923 [3]; 1 × MIC) of the same sequence?
Answer: The value was 34.3%.

Question: And the “total nucleotide leakage relative to the positive control” value (S. aureus ATCC25923 [3]; 2 × MIC)?
Answer: The value was 77.3%.

Question: And the “total nucleotide leakage relative to the positive control” value (S. aureus ATCC25923 [3]; 3 × MIC)?
Answer: The value was 131.5%.

Question: What about the stability in papain (S. aureus ATCC25923 [4]; papain 1 mg·mL^−1 (0.24 U), 100 mM PBS pH 6, 37 °C) of the same sequence?
Answer: Its stability in papain is “good stability”.

Question: What about the “antibacterial activity remaining in the presence of pepsin” value (S. aureus ATCC25923 [4]; pepsin 1 mg·mL^−1 (0.24 U), 100 mM glycine pH 2, 37 °C) of the same sequence?
Answer: The value was 70%.

Question: What about the stability in k-protease (S. aureus ATCC25923 [4]; proteinase K 1 mg·mL^−1 (0.24 U), 100 mM Tris-HCl pH 7, 37 °C) of the same sequence?
Answer: The stability in k-protease was “good stability”.

Question: What about the stability in trypsin (S. aureus ATCC25923 [4]; trypsin 1 mg·mL^−1 (0.24 U), 100 mM Tris-HCl pH 8, 37 °C) of the same sequence?
Answer: Its stability in trypsin is “good stability”.

Question: And the “color of the pork flesh” value [5]?
Answer: The value was “still bright on the fourth day”.

Question: What about the MIC (B. subtilis ATCC6633) of the same sequence?
Answer: The MIC was 2 µg/mL.

Question: What about the MIC [6] of the same sequence?
Answer: Its MIC is 3 µg/mL.

Question: What about the MIC [7] of the same sequence?
Answer: The MIC was 4 µg/mL.

Question: And the “antibacterial activity (inhibition profiling)” value [8]?
Answer: The value was “provided antibacterial activity against Gram-positive and Gram-negative bacteria”.

Question: And the “bacterial colonies in pork over storage days” value [9]?
Answer: The value was “showed a decreasing trend with an increase in days”.

Question: What about the “inhibition circle diameter compared with gentamicin” value [10] of the same sequence?
Answer: Its value is “more significant than 50 μg·mL^−1 gentamicin”.

Question: What about the “antibacterial activity of the purified product” value [11] of the same sequence?
Answer: The value was “deficient antibacterial activity”.

Question: And the “inhibition circle diameter compared with gentamicin” value (S. aureus ATCC25923 [12])?
Answer: Its value is “more significant than 50 μg·mL^−1 gentamicin”.

Question: What about the “stability at low and room temperatures” value (S. aureus ATCC25923 [13]; 4 °C, 25 °C and 37 °C for 1 h) of the same sequence?
Answer: Its value is “good stability”.

Question: And the “diameter of the inhibition circle as % of the maximum inhibition circle diameter” value (S. aureus ATCC25923 [13]; 90 °C for 1 h)?
Answer: The value was 55%.

Question: And the MIC (E. coli O157 ATCC35150)?
Answer: The MIC was 5 µg/mL.

Question: And the “antibacterial activity in salt solutions” value (S. aureus ATCC25923 [14])?
Answer: Its value is “not affected”.

— article PMC10384874, “The Expression of Antibacterial Peptide Turgencin A in Pichia pastoris and an Analysis of Its Antibacterial Activity” (Molecules, 2023)
